The text below walks through data of ChEMBL document CHEMBL4334528, “Structure, Biosynthesis, and Bioactivity of Photoditritide from Photorhabdus temperata Meg1” (J Nat Prod, 2019).

One assay concerns Micrococcus luteus. In words: Antibacterial activity against Micrococcus luteus assessed as bacterial growth inhibition by CLSI protocol based broth microdilution assay. The assay is classed as functional.
A further assay relates to L6. The assay can be described thus: Cytotoxicity against rat L6 cells measured after 72 hrs by alamar blue dye based fluorimetry analysis. The assay is classed as cell-based. Particulars: L6, 72 h. On the technique in general: Alamar Blue is a resazurin reagent that responds to reducing activity.
A further assay concerns Plasmodium falciparum. The assay can be described thus: Antiplasmodial activity against Plasmodium falciparum NF54 measured after 24 hrs in presence of [3H] hypoxanthine by liquid scintillation counter analysis. The assay is classed as functional, organism-based.
The next assay concerns Clavispora lusitaniae. In words: Antifungal activity against Candida lusitaniae DSM 70102 assessed as fungal growth inhibition by EUCAST method. The assay is classed as functional.
The next assay concerns Trypanosoma cruzi. In words: Antitrypanosomal activity against Trypanosoma cruzi Tulahuen C4 infected in rat L6 cells measured after 96 hrs by inverted microscopy analysis. In kind it is functional, organism-based. Particulars: Tulahuen C4, L6, 96 h.
Assay [1] deals with Trypanosoma brucei rhodesiense. In words: Antitrypanosomal activity against Trypanosoma brucei rhodesiense STI B900 measured after 72 hrs by alamar blue dye based fluorimetry analysis. Particulars: STI B900, 72 h. In kind it is functional, organism-based.
The next assay concerns Escherichia coli. The assay can be described thus: Antibacterial activity against Escherichia coli OP50 assessed as bacterial growth inhibition by CLSI protocol based broth microdilution assay. The assay is classed as functional. On the technique in general: Broth dilution looks for growth in wells or tubes with falling amounts of substance.
Another assay concerns Leishmania donovani. In words: Antileishmanial activity against Leishmania donovani MHOM/ET/67/L82 measured after 72 hrs by alamar blue dye based fluorimetry analysis. The assay is classed as functional, organism-based. Particulars: MHOM/ET/67/L82, 72 h.

pIC50: −log10 of the molar value. Converted amounts (≈) assume the structure as drawn. Some results are limits rather than exact numbers.

One may read the MIC as the lowest concentration found to suppress growth. Regarding `CC1(C)S[C@@H]2[C@H](NC(=O)[C@H](N)c3ccccc3)C(=O)N2[C@H]1C(=O)O` [AMPICILLIN], the MIC in the assay on Micrococcus luteus amounted to 4.2 µM (≈ 1.47 µg/mL).

As a reminder, the pIC50 is the IC50 on a negative log10 scale, so that one unit is a factor of ten. For the compound `N=C(N)NCCCC[C@H]1NC(=O)[C@H](Cc2c[nH]c3ccccc23)NC(=O)[C@H](Cc2ccc(O)cc2)NC(=O)[C@@H](Cc2c[nH]c3ccccc23)NC(=O)[C@@H](Cc2ccc(O)cc2)NC(=O)[C@@H](CCCCNC(=N)N)NC1=O`, the pIC50 was 4.08 in the assay on L6; 4.57 with Plasmodium falciparum; 4.15 in the assay with Trypanosoma cruzi; 4.89 in assay [1]; < 4.00 with Leishmania donovani. Moreover, the MIC with Micrococcus luteus was 3 µM (≈ 3.12 µg/mL); with Clavispora lusitaniae it was > 96 µM; in the assay with Escherichia coli, 24 µM (≈ 24.9 µg/mL).

`COc1cc([C@@H]2c3cc4c(cc3[C@H](O)[C@H]3COC(=O)[C@H]23)OCO4)cc(OC)c1OC` [PODOFILOX] had a pIC50 in the assay with L6 of 8.15.

For the compound `O=C(N[C@H](CO)[C@H](O)c1ccc([N+](=O)[O-])cc1)C(Cl)Cl` [CHLORAMPHENICOL], the MIC with Escherichia coli is 0.6 µM (≈ 0.194 µg/mL).

Regarding `C[C@@H]1[C@H](O)[C@@H](C)/C=C/C=C/C=C/C=C/C=C/C=C/C=C/[C@H](O[C@@H]2O[C@H](C)[C@@H](O)[C@H](N)[C@@H]2O)C[C@@H]2O[C@](O)(C[C@@H](O)C[C@@H](O)[C@H](O)CC[C@@H](O)C[C@@H](O)CC(=O)O[C@H]1C)C[C@H](O)[C@H]2C(=O)O` [AMPHOTERICIN B], in the assay with Clavispora lusitaniae, the MIC amounted to 0.42 µM (≈ 0.388 µg/mL).
